In patent publication US11932658B2 (BRISTOL-MYERS SQUIBB COMPANY, priority 2016, dated 2024) one finds IC50 data, which are given here for 28 molecules.

Molecules are shown by their SMILES.

In the assay the target is T1, PAR4 (Homo sapiens, UniProt Q96RI0).
T1 construct: expressed in transfected cells; host or cells: HEK293 PAR4 Clone 1.2A (BMS Arctic ID 383940)
T1 sequence (Q96RI0 18-385): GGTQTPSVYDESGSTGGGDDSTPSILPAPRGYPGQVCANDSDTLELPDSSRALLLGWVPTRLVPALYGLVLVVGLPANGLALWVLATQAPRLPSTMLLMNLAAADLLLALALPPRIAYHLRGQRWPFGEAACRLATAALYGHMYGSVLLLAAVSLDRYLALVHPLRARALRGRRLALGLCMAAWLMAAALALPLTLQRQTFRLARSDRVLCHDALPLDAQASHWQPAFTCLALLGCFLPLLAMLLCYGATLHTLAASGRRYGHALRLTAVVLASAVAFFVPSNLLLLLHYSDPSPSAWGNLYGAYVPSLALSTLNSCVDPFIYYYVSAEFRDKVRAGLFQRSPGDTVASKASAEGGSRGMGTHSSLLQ
Put plainly: PAR4 FLIPR assay (antagonism of agonist peptide-induced calcium mobilization). It is filed as cell-based. The essentials: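 Antagonism was taken as block of calcium mobilization evoked by the agonist peptide H-Ala-Phe(4-F)-Pro-Gly-Trp-Leu-Val-Lys-Asn-[…]-NH2, added after 30 min room-temperature compound preincubation in dye-loaded PAR4-transfected HEK293 cells (endogenous PAR1). Fluorescence was read on FDSS, with compound addition alone used as the agonist counter-screen; values come from 11-point concentration-response curves.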
(In general: A change in cytosolic calcium serves as a functional read-out for many receptors and channels.)

Consider `COc1cnc2c(-c3nc4cc(F)c5c(c4s3)C[C@](C)(COC(=O)Nc3cccnc3)O5)cc(C)cc2n1` [Example 183, (R)-(5-fluoro-2-(2-methoxy-7-methylquinoxalin-5-yl)-7-methyl-7,8-dihydrobenzofuro[5,4-d]thiazol-7-yl)methyl pyridin-3-ylcarbamate], for which the IC50 (usually the midpoint of a concentration-inhibition curve) stood at 2.3 nM. On to `COc1cnc2c(-c3nc4cc(F)c5c(c4s3)C[C@](C)(COC(=O)Nc3cccc(C#N)c3)O5)cc(C)cc2n1` [Example 184, (R)-(5-fluoro-2-(2-methoxy-7-methylquinoxalin-5-yl)-7-methyl-7,8-dihydrobenzofuro[5,4-d]thiazol-7-yl)methyl (3-cyanophenyl)carbamate], for which the IC50 amounted to 1.8 nM. As for `COc1cnc2c(-c3nc4cc(F)c5c(c4s3)C[C@H](COC(=O)Nc3cncnc3)O5)cc(C)cc2n1` [Example 185], the 50% inhibitory concentration (IC50) came out at 6.9 nM. On to `COc1cnc2c(-c3nc4ccc5c(c4s3)CC(C)(C)O5)cc(C)cc2n1` [Example 186, 2-(2-methoxy-7-methylquinoxalin-5-yl)-7,7-dimethyl-7,8-dihydrobenzofuro[5,4-d]thiazole], for which the IC50 was found to be 8.8 nM. The value for `COc1cnc2c(-c3nc4ccc5c(c4s3)C(C)C(CO)O5)cc(C)cc2n1` (stereo not shown) [Example 189, (2-(2-methoxy-7-methylquinoxalin-5-yl)-8-methyl-7,8-dihydrobenzofuro[5,4-d]thiazol-7-yl)methanol] was 11 nM; that for `COC(=O)NCC1Cc2c(ccc3nc(-c4cc(C)cc5nc(OC)cnc45)sc23)O1` (stereo not shown) [Example 191, Methyl ((2-(2-methoxy-7-methylquinoxalin-5-yl)-7,8-dihydrobenzofuro[5,4-d]thiazol-7-yl)methy 1)carbamate] was 7.1 nM. As for `COc1cnc2c(-c3nc4ccc5c(c4s3)CC(CNC(=O)Oc3ccccc3)O5)cc(C)cc2n1` (stereo not shown) [Example 192, Phenyl ((2-(2-methoxy-7-methylquinoxalin-5-yl)-7,8-dihydrobenzofuro[5,4-d]thiazol-7-yl)methy 1)carbamate], the figure is 8.3 nM. As for `COc1cnc2c(-c3nc4ccc5c(c4s3)CC(CNC(=O)OCc3ccccc3)O5)cc(C)cc2n1` (stereo not shown) [Example 193, Benzyl ((2-(2-methoxy-7-methylquinoxalin-5-yl)-7,8-dihydrobenzofuro[5,4-d]thiazol-7-yl)methyl)carbamate], the half-maximal inhibitory concentration (IC50) is 5.3 nM. For `COc1cnc2c(-c3nc4ccc5c(c4s3)C[C@](C)(COC(=O)Nc3cnc(C)nc3)O5)cc(C)cc2n1` [Example 194, (R)-(2-(2-methoxy-7-methylquinoxalin-5-yl)-7-methyl-7,8-dihydrobenzofuro[5,4-d]thiazol-7-yl)methyl (2-methylpyrimidin-5-yl)carbamate], the IC50 is 2.5 nM. As for `COc1cnc2c(-c3nc4ccc5c(c4s3)C[C@](C)(COC(=O)Nc3cccnc3)O5)cc(C)cc2n1` [Example 195, (R)-(2-(2-methoxy-7-methylquinoxalin-5-yl)-7-methyl-7,8-dihydrobenzofuro[5,4-d]thiazol-7-yl)methyl pyridin-3-ylcarbamate], the figure is 3.5 nM. The value for `COc1cnc2c(-c3nc4ccc5c(c4s3)C[C@](C)(COC(=O)Nc3cccc(C#N)c3)O5)cc(C)cc2n1` [Example 196, (R)-(2-(2-methoxy-7-methylquinoxalin-5-yl)-7-methyl-7,8-dihydrobenzofuro[5,4-d]thiazol-7-yl)methyl (3-cyanophenyl)carbamate] was 1.6 nM. The value for `CCOC(=O)NCC1Cc2c(ccc3nc(-c4cc(C)cc5nc(OC)cnc45)sc23)O1` (stereo not shown) [Example 197, Ethyl ((2-(2-methoxy-7-methylquinoxalin-5-yl)-7,8-dihydrobenzofuro[5,4-d]thiazol-7-yl)methyl)carbamate] was 22 nM.

As for `COc1cnc2c(-c3nc4ccc5c(c4s3)CC(CNC(=O)OCC(C)C)O5)cc(C)cc2n1` (stereo not shown) [Example 198, Isobutyl ((2-(2-methoxy-7-methylquinoxalin-5-yl)-7,8-dihydrobenzofuro[5,4-d]thiazol-7-yl)methy 1)carbamate], the IC50 was determined as 3.1 nM. Take `COc1cnc2c(-c3nc4cc(F)c5c(c4s3)CC(C)(C)O5)cc(C)cc2n1` [Example 200, 5-fluoro-2-(2-methoxy-7-methylquinoxalin-5-yl)-7,7-dimethyl-7,8-dihydrobenzofuro[5,4-d]thiazole]: the concentration for half-maximal inhibition (IC50) came out at 7.9 nM.

Take `COc1cnc2c(-c3nc4cc(F)c5c(c4s3)C[C@@H](CNC(=O)OC(C)(C)C)O5)cc(C)cc2n1` [Example 202, (S)-tert-butyl ((5-fluoro-2-(2-methoxy-7-methylquinoxalin-5-yl)-7,8-dihydrobenzofuro[5,4-d]thiazol-7-yl)methyl)carbamate]: the IC50 came to 6.5 nM. As for `COc1cnc2c(-c3nc4cc(F)c5c(c4s3)C[C@H](COC(=O)Nc3cccc(C(=O)N(C)C)c3)O5)cc(C)cc2n1` [Example 203, (R)-(5-fluoro-2-(2-methoxy-7-methylquinoxalin-5-yl)-7,8-dihydrobenzofuro[5,4-d]thiazo 1-7-yl)methyl (3-(dimethylcarbamoyl)phenyl)carbamate], the figure is 2.3 nM. In the case of `COc1cnc2c(-c3nc4cc(F)c5c(c4s3)C[C@H](COC(=O)Nc3ccc(C(=O)N(C)C)cc3)O5)cc(C)cc2n1` [Example 204, (R)-(5-fluoro-2-(2-methoxy-7-methylquinoxalin-5-yl)-7,8-dihydrobenzofuro[5,4-d]thiazo 1-7-yl)methyl (4-(dimethylcarbamoyl)phenyl)carbamate], the half-maximal inhibitory concentration (IC50) is 2.3 nM. As for `COc1cnc2c(-c3nc4cc(F)c5c(c4s3)C[C@H](COC(=O)Nc3cncc(C(N)=O)c3)O5)cc(C)cc2n1` [Example 205, (R)-(5-fluoro-2-(2-methoxy-7-methylquinoxalin-5-yl)-7,8-dihydrobenzofuro[5,4-d]thiazo 1-7-yl)methyl (5-carbamoylpyridin-3-yl)carbamate], the figure is 1.3 nM. As for `COc1cnc2c(-c3nc4cc(F)c5c(c4s3)C[C@H](COC(=O)Nc3ccc(-c4ncco4)cc3)O5)cc(C)cc2n1` [Example 207, (R)-(5-fluoro-2-(2-methoxy-7-methylquinoxalin-5-yl)-7,8-dihydrobenzofuro[5,4-d]thiazo 1-7-yl)methyl (4-(oxazol-2-yl)phenyl)carbamate], the figure is 2.2 nM. Consider `CNC(=O)c1ccc(NC(=O)OC[C@H]2Cc3c(c(F)cc4nc(-c5cc(C)cc6nc(OC)cnc56)sc34)O2)cc1` [Example 208, (R)-(5-fluoro-2-(2-methoxy-7-methylquinoxalin-5-yl)-7,8-dihydrobenzofuro[5,4-d]thiazo 1-7-yl)methyl (4-(methylcarbamoyl)phenyl)carbamate], for which the IC50 was 1.1 nM. The value for `COc1cnc2c(-c3nc4cc(F)c5c(c4s3)C[C@@H](CNC(C)=O)O5)cc(C)cc2n1` [Example 209, (S)-N-((5-fluoro-2-(2-methoxy-7-methylquinoxalin-5-yl)-7,8-dihydrobenzofuro[5,4-d]thiazol-7-yl)methyl)acetamide] was 26 nM; that for `COC(=O)NC[C@@H]1Cc2c(c(F)cc3nc(-c4cc(C)cc5nc(OC)cnc45)sc23)O1` [Example 210, (S)-methyl ((5-fluoro-2-(2-methoxy-7-methylquinoxalin-5-yl)-7,8-dihydrobenzofuro[5,4-d]thiazol-7-yl)methyl)carbamate] was 2.9 nM; that for `COc1cnc2c(-c3nc4cc(F)c5c(c4s3)C[C@@H](CNC(=O)OCc3ccccc3)O5)cc(C)cc2n1` [Example 211, (S)-benzyl ((5-fluoro-2-(2-methoxy-7-methylquinoxalin-5-yl)-7,8-dihydrobenzofuro[5,4-d]thiazol-7-yl)methyl)carbamate] was 1.3 nM. In the case of `COc1cnc2c(-c3nc4cc(F)c5c(c4s3)C[C@@H](CNC(=O)Oc3ccccc3)O5)cc(C)cc2n1` [Example 212, (S)-phenyl ((5-fluoro-2-(2-methoxy-7-methylquinoxalin-5-yl)-7,8-dihydrobenzofuro[5,4-d]thiazol-7-yl)methyl)carbamate], the half-inhibitory concentration (IC50) was determined as 2.1 nM.

For the molecule `COc1cnc2c(-c3nc4cc(F)c5c(c4s3)C[C@@H](CNC(=O)Oc3ccc(C)cc3)O5)cc(C)cc2n1` [Example 213, (S)-p-tolyl ((5-fluoro-2-(2-methoxy-7-methylquinoxalin-5-yl)-7,8-dihydrobenzofuro[5,4-d]thiazol-7-yl)methyl)carbamate], the IC50 came out at 3.6 nM.

For `COc1cnc2c(-c3nc4cc(F)c5c(c4s3)C[C@@H](CNC(=O)Oc3ccc(Cl)cc3)O5)cc(C)cc2n1` [Example 214, (S)-4-chlorophenyl ((5-fluoro-2-(2-methoxy-7-methylquinoxalin-5-yl)-7,8-dihydrobenzofuro[5,4-d]thiazol-7-yl)methyl)carbamate], the IC50 was 26 nM. As for `COc1cnc2c(-c3nc4cc(F)c5c(c4s3)C[C@@H](CNC(=O)C(F)(F)F)O5)cc(C)cc2n1` [Example 215, (S)-2,2,2-trifluoro-N-((5-fluoro-2-(2-methoxy-7-methylquinoxalin-5-yl)-7,8-dihydrobenzofuro[5,4-d]thiazol-7-yl)methyl)acetamide], the figure is 2.3 nM. The value for `COc1ccc(OC(=O)NC[C@@H]2Cc3c(c(F)cc4nc(-c5cc(C)cc6nc(OC)cnc56)sc34)O2)cc1` [Example 216, (S)-4-methoxyphenyl ((5-fluoro-2-(2-methoxy-7-methylquinoxalin-5-yl)-7,8-dihydrobenzofuro[5,4-d]thiazol-7-yl)methyl)carbamate] was 2.1 nM.
